Source: patent publication US20030023104A1, “Therapeutic compound - fatty acid conjugates” (COMMONWEALTH SCIENTIFIC AND INDUSTRIAL RESEARCH ORGANISATION, priority 1995, published 2003)
Several values for one entry are separate records, joined by “and”; a condition that tells them apart may be missing. Identical values can stand only once.

Key:
[1] = system: UVB induced immunosuppression; assay: Contact Hypersensitivity Assay (oxazolone, net ear swelling); assay type: in vivo, mice; details: 1% (1 mg/mouse) painted within 10 minutes post UVB exposure, total 3 MED UVB
From the text: The assay used the method described in “Current Protocols in Immunology” (Vol 1, Section 4.2 Eds Coligan et al. (1991) NIH). The sensitiser was Oxazalone. Briefly this method was as follows:
UVB Radiation. Mice were irradiated with a single FL40SE UVB fluorescent tube (Oliphant) in a reflective batten, providing […] UVB radiation measured at target distance using an International Light IL1700 radiometer with a UVB detector sensitive between 250-315 nm. The mice received 0.1179 J/cm^2 UVB radiation, constituting 1 minimal erythemal dose (MED) as previously ascertained, on each of 3 consecutive days, being exposed unrestrained with the wire cage tops removed.
Induction of Systemic Contact Hypersensitivity. Test mice were exposed on the dorsum to 1 MED UVB radiation (or no UVB radiation) at the same hour on days 1, 2 and 3. On days 8 and 9, the mice (irradiated and non-irradiated) were sensitized by topical application to the abdominal skin of 0.1 ml of 3% (w/v) oxazolone (Sigma Chemical Co., St Louis, Mo.) freshly prepared in ethanol. On day 15, the pre-challenge ear thickness was measured using the spring micrometer, and the mice were then challenged by the application of 5 ul freshly prepared 3% oxazolone/ethanol solution to both surfaces of each pinna. Ear thickness was again measured repeatedly between 16-24 hours, and the maximum ear thickness was recorded. The net ear swelling was calculated as the difference between the average pre-challenge and the average post-challenge ear thickness for each treatment group. Statistical significance of the differences in net ear swelling between treatment groups was assessed with Student's t test.
The mice were painted with vehicle, 0.5 mg/mouse HC, 0.5 mg/mouse HC-Suc-GTP2. 1 mg/mouse 17-b HC-Suc-GTP3 or 17-b HC within 10 minutes post UVB exposure. A total of 3 MED of unshielded UVB was used. (Table 3)

UVB induced oedema = assay: UVB erythema assay (net skin fold thickness); assay type: in vivo, Skh-1 hairless albino female mice; details: for Mean Net Skin Fold Thickness: 0.5 mg/mouse topical, 2MED UVB
[2] = system: JURKAT cells (acute T cell human leukemia); details: JURKAT; for IC50: drugs coated onto plates (Table 9); for activity (cytotoxicity) when delivered to cultures in ethanol: ethanol delivery
Method: The cytotoxicity of chlorambucil and chlorambucil fatty acid conjugates (CGTP1. P2 and P3) were tested in vitro with JURKAT cells (acute T cell human leukemia). Cells were incubated with drug and viability was determined by a colourmetric proliferation test. Cytotoxicity towards other cells lines was also tested (PC3 human prostate cancer cells, B16 mouse melanoma cells and human peripheral blood mononuclear cells).
JURKAT cells were seeded into 96-well plates at a density of 1.6×10^4 cells/200 μl complete RPMI ± drug and cultured for 64 h. A 1:3 split of confluent PC3 cells in a 75 cm^2 flask were seeded into a 96-well plate and cultured for 48 h in complete RPMI. Media was removed and complete RPMI ± drug was added to wells. Cells were further cultured for 72 h.
i) Ethanol. Drugs were dissolved in ethanol and added to culture media. The final concentration of ethanol in media was no greater than 1% (v/v). This delivery was used for experiments with JURKAT, PBMC, PC3 and B16 cell types.
ii) Coating of plates. Drugs were dissolved in ethanol and aliquots (up to 40 μl) were added to 90% (v/v) isopropanol. Solution (50 μl) was then added to wells of a 96-well plate and the solvent evaporated by heating at 37° C. Media ± cells was then added. This delivery was used for some experiments with JURKAT cells.
Viability was determined using the MTS assay (CellTiter 96TM AQueous Non-Radioactive Cell Proliferation Assay) from Promega. Reagent (40 μl) was added to each well and absorbance values at 490 nm were determined 1 to 4 h later. The effect of drug on cell viability was compared to cultures set up containing no drug (100% viability). Wells containing no cells were used to control for background absorbance (0% viability). Each concentration was tested in at least 3 wells. Concentrations necessary to cause a 50% inhibition of cellular growth of control cells (IC50) were calculated by linear regression.

B16 melanoma cells = assay: Tumour Cytotoxicity Model (B16 melanoma in C57 mice); assay type: in vivo, C57 black mice; design: Mean (standard error) of B16 tumour volume adjusted for the variation in initial volume: scale not given here; details: for Mean (standard error) of B16 tumour volume adjusted for the variation in initial volume: statistically modified tumour volume; for B16 Tumour Volume: individual mice
Method: Groups of C57 black mice were given an initiation dose of 2×10^5 B16 melanoma cells as an intradermal injection. The cells were suspended in MEM without serum. The abdomen was clipped and 100 μl of cells + MEM was injected. […] The tumours were measured with a micrometer and photographed just prior to the injection of drug (day 8-10).
The cytotoxic drugs and their fatty acid conjugates were dissolved or suspended in 4:1 soy bean oil:ethyl oleate. A 10 mg/ml or a 20 mg/ml solution of each parent drug or the fatty acid conjugate made to the same molar concentration as the parent drug was then injected into the same region as the tumour at a dose of 0.5 mg or 1 mg. The tumours were then photographed, measured and re-injected every two to three days.

## CCCCCCCCCCCCCCCC(=O)OCC(COC(=O)CCCCCCCCCCCCCCC)(COC(=O)CCCCCCCCCCCCCCC)NC(=O)CNC(=O)CCC(=O)OCC(=O)[C@@]1(O)CC[C@H]2[C@@H]3CCC4=CC(=O)CC[C@]4(C)[C@H]3[C@@H](O)C[C@@]21C [17-b HC-Suc-GTP3, 17-b Hydrocortisone-21-Suc-Gly-Tris-Tripalmitate]
[1]
  Net Ear Swelling: 32.8 10^−2 mm
UVB induced oedema; applied Day 0 after UV exposure
  Mean Net Skin Fold Thickness: 42.7 ± 13.7 10^−2 mm
UVB induced oedema; applied Day −3 (3 days prior to UV exposure)
  Mean Net Skin Fold Thickness: 90.7 ± 14.8 10^−2 mm
UVB induced oedema; 0.5 mg/mouse, applied at Day 0, post UVB exposure
  activity equivalent to % of the hydrocortisone activity in protecting against UVB induced oedema: approximately 50%

## CCCC(=O)O[C@]1(C(=O)CO)CC[C@H]2[C@@H]3CCC4=CC(=O)CC[C@]4(C)[C@H]3[C@@H](O)C[C@@]21C [17b-Hydrocortisone, 17-Butyrate-Hydrocortisone, reference compound]
[1]
  Net Ear Swelling: 38.6 10^−2 mm

## CCCCCCCCCCCCCCCC(=O)OCC(CO)(COC(=O)CCCCCCCCCCCCCCC)NC(=O)CNC(=O)CCCc1ccc(N(CCCl)CCCl)cc1 [CGTP2]
[2]
  IC50: 17.7 µM
  activity (cytotoxicity) when delivered to cultures in ethanol: not observed
B16 melanoma cells; 0.5 mg and 1.0 mg groups
  difference in tumour volume from the Vehicle group (95% level): significant difference
B16 melanoma cells; 13/11/95, 0.5 mg
  Mean (standard error) of B16 tumour volume adjusted for the variation in initial volume: 2.39 (0.523)
B16 melanoma cells; 13/11/95, 1.0 mg
  Mean (standard error) of B16 tumour volume adjusted for the variation in initial volume: 2.58 (0.523)
B16 melanoma cells; 15/11/95, 0.5 mg
  Mean (standard error) of B16 tumour volume adjusted for the variation in initial volume: 4.07 (0.881)
B16 melanoma cells; 15/11/95, 1.0 mg
  Mean (standard error) of B16 tumour volume adjusted for the variation in initial volume: 3.89 (0.819)
B16 melanoma cells; 16/11/95, 0.5 mg
  Mean (standard error) of B16 tumour volume adjusted for the variation in initial volume: 4.84 (1.06)
B16 melanoma cells; 16/11/95, 1.0 mg
  Mean (standard error) of B16 tumour volume adjusted for the variation in initial volume: 4.23 (0.98)
B16 melanoma cells; 17/11/95, 0.5 mg
  Mean (standard error) of B16 tumour volume adjusted for the variation in initial volume: 4.90 (1.28)
B16 melanoma cells; 17/11/95, 1.0 mg
  Mean (standard error) of B16 tumour volume adjusted for the variation in initial volume: 4.84 (1.19)
B16 melanoma cells; Day 1, drug dose 0.5 mg injected at tumour region
  B16 Tumour Volume: 0.5 mm^2 and 1.0 mm^2 and 2.7 mm^2
B16 melanoma cells; Day 1, drug dose 0.5 mg injected at tumour region, listed as CCTP2
  B16 Tumour Volume: 14.1 mm^2
B16 melanoma cells; Day 1, drug dose 1.0 mg
  B16 Tumour Volume: 8.2 mm^2 and 38.3 mm^2
B16 melanoma cells; Day 1, drug dose 1.0 mg, listed as CCTP2
  B16 Tumour Volume: 5 mm^2
B16 melanoma cells; Day 3, drug dose 0.5 mg
  B16 Tumour Volume: 0.3 mm^2 and 1 mm^2 and 0 mm^2
B16 melanoma cells; Day 3, drug dose 0.5 mg, listed as CCTP2
  B16 Tumour Volume: 27.4 mm^2
B16 melanoma cells; Day 3, drug dose 1.0 mg
  B16 Tumour Volume: 32.7 mm^2 and 73.5 mm^2
B16 melanoma cells; Day 3, drug dose 1.0 mg, listed as CCTP2
  B16 Tumour Volume: 0 mm^2 and 7.7 mm^2
B16 melanoma cells; Day 5, drug dose 0.5 mg
  B16 Tumour Volume: 11.8 mm^2 and 19.1 mm^2 and 0.0 mm^2
B16 melanoma cells; Day 5, drug dose 0.5 mg, listed as CCTP2
  B16 Tumour Volume: 82.8 mm^2
B16 melanoma cells; Day 5, drug dose 1.0 mg
  B16 Tumour Volume: 111.9 mm^2 and 174.1 mm^2
B16 melanoma cells; Day 5, drug dose 1.0 mg, listed as CCTP2
  B16 Tumour Volume: 0 mm^2 and 38.3 mm^2
B16 melanoma cells; Day 6, drug dose 0.5 mg
  B16 Tumour Volume: 19.8 mm^2 and 13.6 mm^2 and 0 mm^2
B16 melanoma cells; Day 6, drug dose 0.5 mg, listed as CCTP2
  B16 Tumour Volume: 167.4 mm^2
B16 melanoma cells; Day 6, drug dose 1.0 mg
  B16 Tumour Volume: 108.4 mm^2 and 240.3 mm^2
B16 melanoma cells; Day 6, drug dose 1.0 mg, listed as CCTP2
  B16 Tumour Volume: 0 mm^2 and 61.6 mm^2
B16 melanoma cells; Day 7, drug dose 0.5 mg
  B16 Tumour Volume: 21.8 mm^2 and 35.1 mm^2 and 0 mm^2
B16 melanoma cells; Day 7, drug dose 0.5 mg, listed as CCTP2
  B16 Tumour Volume: 152.8 mm^2
B16 melanoma cells; Day 7, drug dose 1.0 mg
  B16 Tumour Volume: 254.1 mm^2 and 215.0 mm^2
B16 melanoma cells; Day 7, drug dose 1.0 mg, listed as CCTP2
  B16 Tumour Volume: 0 mm^2 and 92.6 mm^2

## CCCCCCCCCCCCCCCC(=O)OCC(COC(=O)CCCCCCCCCCCCCCC)(COC(=O)CCCCCCCCCCCCCCC)NC(=O)CNC(=O)CCCc1ccc(N(CCCl)CCCl)cc1 [CGTP3, Chlorambucil-Gly-Tris-Tripalmitate]
[2]
  IC50: 30 µM
  activity (cytotoxicity) when delivered to cultures in ethanol: not observed
